Test results reported in patent US9808470B2, “Estrogenic components for use in the treatment of neurological disorders” (UNIVERSITE DE LIEGE, priority 2012, dated 2017).

How the values were obtained:
Assay type in all cases: in vivo
[1] = test system: doublecortin (DCX); test: Ex.8 neuroprotective HIE rat model: doublecortin staining; settings: 5 mg/kg/day E4, DG
Description: Newborn rat pups were assigned to one of the following 14 groups from postnatal day 4 (FIG. 23(A)): Sham group (n=12), Vehicle group (n=17), 5 mg/kg/day E4 (n=13), 10 mg/kg/day E4 (n=10), 5 mg/kg/day E4+1.6 mg/kg/day PROG (n=11), 10 mg/kg/day E4+1.6 mg/kg/day PROG (n=11), 5 mg/kg/day E4+16 mg/kg/day PROG (n=11), 10 mg/kg/day E4+16 mg/kg/day PROG (n=11), 5 mg/kg/day E4+136 ng//kg/day E2 (n=11), 10 mg/kg/day E4+136 ng/kg/day E2 (n=11), 5 mg/kg/day E4+1.6 mg/kg/day PROG+136 ng/kg/day (n=13) E2, 10 mg/kg/day E4+1.6 mg/kg/day PROG+136 ng/kg/day E2 (n=16), 5 mg/kg/day E4+16 mg/kg/day PROG+136 ng/kg/day E2 (n=11), 10 mg/kg/day E4+16 mg/kg/day PROG+136 ng/kg/day groups (n=13). Intraperitoneal injections of the pups from study groups were performed from postnatal day 4 to postnatal day 7 inclusively. […]
The sections were heated in 10 mmol/L citrate buffer (pH 6.0) at 100° C. for 10 minutes. […] Samples were analyzed with the aid of a microscope (Olympus Vanox AHBT3, Olympus), and the ImageJ software 15 (NIH). The percentage of positively stained cells was quantified as a sum of positively stained either DCX or VEGF cells divided by the total number of DAPI positive cells expressed in percentage.

[2] = Ex.3 neuroprotective HIE rat model: body weight
Description: Newborn rat pups were assigned to one of the following 6 groups from postnatal day 4: Sham group (n=24), Vehicle group (n=14), E4 1 mg/kg/per day group (n=11), E4 5 mg/kg/per day group (n=14), E4 10 mg/kg/per day group (n=14), or E4 50 mg/kg/per day group (n=19). From postnatal day 4, rat pups were intraperitoneally injected either vehicle (Vehicle group) or E4 (1, 5, 10, or 50 mg/kg/per day in accordance to the E4 group assignment) or neither vehicle nor E4 (Sham group). At day 7, 30 minutes after last injection, animals were anesthetized with isoflurane (induction, 3.0%; maintenance, 1.5%), and the rat pups from Vehicle and E4 groups passed through surgery encompassing left common carotid artery double ligation and cut. After the procedure, the pups were returned to their dams and were allowed to recover for 1 hour. The pups were then placed in the humidified hypoxic in vivo cabinet (CoyLab, Grass Lake, Mich., USA). Hypoxia was produced by the inhalation of 11%-8% of oxygen balanced by nitrogen at decreased concentration of oxygen for 20 minutes, followed by inhalation of 8% oxygen and 92% nitrogen at constant concentration for 35 minutes. All the manipulations were performed at 37° C. The Sham group went through similar procedures without left common carotid artery ligation followed by hypoxia nor injection. Rat pups recovered with their dams and reared normally until being sacrificed at postnatal day 14.
To monitor the post-operative well-being of the rat pups due to the performed manipulations and estetrol pre-treatment, the body weight was monitored from postnatal day 7 to day 14 inclusive.

[3] = test system: Myelin Basic Protein (MBP); test: Ex.7 therapeutic HIE rat model: myelin basic protein staining; settings: all the E4 treated groups, vs vehicle
Description: FIG. 22. Myelin Basic Protein (MBP) staining of brain coronal sections in rat pups that were treated with estetrol. Brains were removed upon sacrifice at postnatal day 14 and paraformaldehyde-fixed and paraffin-embedded brain samples were coronally sectioned at the hippocampus region. The sections were processed for detection of white matter damage through immunohistological staining with anti-MBP antibody. (A-F) MBP staining of brain coronal sections (scale bar: 2 mm) is shown. (G-L) MBP staining of cingulum of the left hemisphere is (scale bar: 2 mm) is shown. (M) The ratio of the MBP positive areas OD ratio was calculated as the MBP positive area OD of the ipsilateral hemisphere divided by the MBP positive area OD of the contralateral hemisphere. 10 samples from each study group were analyzed. The ratio of the MBP positive area OD in the Sham group was considered by default as 1.0.
The sections were processed for immunohistochemical detection of neuronal myelin basic protein disruption. For antigen retrieval, the sections were heated in 10 mmol/L citrate buffer (pH 6.0) at 100° C. for 10 min. […] 10 samples from each study group of both study designs were analyzed with the aid of an image scanner (Nanozoomer Virtual Microscopy, Hamamatsu, Tokyo, Japan) and ImageJ software (NIH, USA). The MBP positive areas optical densities in the ipsilateral and contralateral hemispheres were measured. […]

For `C[C@]12CC[C@@H]3c4ccc(O)cc4CC[C@H]3[C@@H]1[C@@H](O)[C@@H](O)[C@@H]2O` [E4, 1,3,5(10)-estratrien-3,15α,16α,17β-tetrol], the “percentage of DCX positively stained cells” value [1] was 60.29±5.66%, the body weight ([2]; 1 mg/kg ip PND4-7 before HI, PND 10, 11 and 12, vs vehicle) was “significantly higher body weight than the vehicle group” and the body weight ([2]; 1 mg/kg ip PND4-7 before HI, PND 14, vs vehicle) was “significantly higher body weight than the vehicle group”. The body weight ([2]; 5 mg/kg ip PND4-7 before HI, PND 8, 9, 10, 12, vs sham) was “sham operated animals body weight was significantly higher”, the body weight ([2]; 5 mg/kg ip PND4-7 before HI, PND 14, vs vehicle) was “significantly higher body weight than the vehicle group” and the body weight ([2]; 10 mg/kg ip PND4-7 before HI, PND 9, vs vehicle) was “significantly higher body weight than the vehicle group”. For the same compound, the body weight ([2]; 10 mg/kg ip PND4-7 before HI, PND 10, 11 and 12, vs vehicle) was “significantly higher body weight than the vehicle group”, the body weight ([2]; 10 mg/kg ip PND4-7 before HI, PND 14, vs vehicle) was “significantly higher body weight than the vehicle group” and the body weight ([2]; 50 mg/kg ip PND4-7 before HI, PND 8, 9, 10, 12, vs sham) was “sham operated animals body weight was significantly higher”. For the same compound, the body weight ([2]; 50 mg/kg ip PND4-7 before HI, PND 11, 13, 14, vs sham) was “sham operated animals had significantly higher body weight”, the body weight ([2]; estetrol pre-treated (1, 5, 10, 50 mg/kg) ip PND4-7 before HI, PND 8 and 13, vs vehicle) was “significantly higher post-operative body weight than the vehicle pre-treated animals” and the “ratio of the MBP-positive area OD” value [3] was “significantly higher”.
